Common to all, as to set-up: purchased Milipore (Millipore)
The target of test [1] is T1, Human adrenergic α2B receptor (Homo sapiens, UniProt P18089).
T1 sequence (P18089 1-450): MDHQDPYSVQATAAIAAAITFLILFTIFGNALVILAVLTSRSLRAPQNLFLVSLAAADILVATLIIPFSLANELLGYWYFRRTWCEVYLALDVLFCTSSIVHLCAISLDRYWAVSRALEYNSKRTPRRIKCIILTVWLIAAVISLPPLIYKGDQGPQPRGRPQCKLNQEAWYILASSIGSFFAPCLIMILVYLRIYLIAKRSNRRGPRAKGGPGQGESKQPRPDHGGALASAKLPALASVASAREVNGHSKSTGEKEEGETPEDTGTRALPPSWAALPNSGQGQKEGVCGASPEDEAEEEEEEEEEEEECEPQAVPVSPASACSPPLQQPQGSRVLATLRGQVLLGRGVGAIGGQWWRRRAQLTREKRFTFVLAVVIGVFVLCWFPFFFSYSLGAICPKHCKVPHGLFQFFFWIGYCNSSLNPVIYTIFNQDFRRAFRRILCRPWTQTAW
In words: Radioligand binding, adrenergic α2B (Protocol Group B). The note with it: Protocol Group B; for inhibition at 0.01 µM / Percentage inhibition of ligand binding, Adrenergic α2B (10 nM): 10 nM compound; for inhibition at 0.01 µM: read-out: Percentage inhibition of ligand binding, Adrenergic α2B (10 nM); for inhibition at 0.03 µM / Percentage inhibition of ligand binding, Adrenergic α2B (30 nM): 30 nM compound; for inhibition at 0.03 µM: read-out: Percentage inhibition of ligand binding, Adrenergic α2B (30 nM); for inhibition at 0.1 µM / Percentage inhibition of ligand binding, Adrenergic α2B (0.1 μM): 0.1 μM compound; for inhibition at 0.1 µM: read-out: Percentage inhibition of ligand binding, Adrenergic α2B (0.1 μM); for Percentage inhibition of ligand binding, Adrenergic α2B (30 nM): 0.03 µM; for Percentage inhibition of ligand binding, Adrenergic α2B (10 nM): 0.01 µM. The procedure, abridged:
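Compounds at various concentrations in 1% DMSO were tested on recombinant membranes in Tris-HCl pH 7.4 buffer containing MgCl2, CaCl2 and 0.2% BSA.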

Test [2] has as its target T2, Human adrenergic α2A receptor (Homo sapiens, UniProt P08913).
T2 sequence (P08913 1-465): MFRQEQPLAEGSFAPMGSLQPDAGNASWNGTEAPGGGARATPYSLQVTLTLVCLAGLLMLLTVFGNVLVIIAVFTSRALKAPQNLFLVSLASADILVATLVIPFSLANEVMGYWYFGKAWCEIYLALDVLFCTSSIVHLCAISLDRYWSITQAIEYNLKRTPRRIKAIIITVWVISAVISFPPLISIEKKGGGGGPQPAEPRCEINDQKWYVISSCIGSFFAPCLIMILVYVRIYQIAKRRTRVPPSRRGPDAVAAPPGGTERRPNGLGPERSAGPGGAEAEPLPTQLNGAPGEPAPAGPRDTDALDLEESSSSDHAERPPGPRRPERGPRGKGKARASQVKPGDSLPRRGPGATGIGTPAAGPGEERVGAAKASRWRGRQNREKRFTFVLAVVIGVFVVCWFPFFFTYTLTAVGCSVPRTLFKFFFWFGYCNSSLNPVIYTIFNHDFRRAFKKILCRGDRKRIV
In words: Radioligand binding, adrenergic α2A (Protocol Group B). The conditions noted are these: Protocol Group B; for inhibition at 0.1 µM / Percentage inhibition of ligand binding, Adrenergic α2A (0.1 μM): 0.1 μM compound; for inhibition at 0.1 µM: read-out: Percentage inhibition of ligand binding, Adrenergic α2A (0.1 μM); for inhibition at 0.3 µM / Percentage inhibition of ligand binding, Adrenergic α2A (0.3 μM): 0.3 μM compound; for inhibition at 0.3 µM: read-out: Percentage inhibition of ligand binding, Adrenergic α2A (0.3 μM). The procedure, abridged:
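Compounds (1% DMSO vehicle, various concentrations) competed against 2 nM [^3H]MK-912 on recombinant receptor membranes for 60 min at 25° C, Tris-HCl pH 7.4 buffer with Mg2+, Ca2+, BSA. Bound radioligand filtered and counted; 10 μM rauwolscine set nonspecific binding. Values: percent inhibition of specific binding or estimated Ki.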

Test [3] deals with T3, Human adrenergic α1B receptor (Homo sapiens, UniProt P35368).
T3 sequence (P35368 1-520): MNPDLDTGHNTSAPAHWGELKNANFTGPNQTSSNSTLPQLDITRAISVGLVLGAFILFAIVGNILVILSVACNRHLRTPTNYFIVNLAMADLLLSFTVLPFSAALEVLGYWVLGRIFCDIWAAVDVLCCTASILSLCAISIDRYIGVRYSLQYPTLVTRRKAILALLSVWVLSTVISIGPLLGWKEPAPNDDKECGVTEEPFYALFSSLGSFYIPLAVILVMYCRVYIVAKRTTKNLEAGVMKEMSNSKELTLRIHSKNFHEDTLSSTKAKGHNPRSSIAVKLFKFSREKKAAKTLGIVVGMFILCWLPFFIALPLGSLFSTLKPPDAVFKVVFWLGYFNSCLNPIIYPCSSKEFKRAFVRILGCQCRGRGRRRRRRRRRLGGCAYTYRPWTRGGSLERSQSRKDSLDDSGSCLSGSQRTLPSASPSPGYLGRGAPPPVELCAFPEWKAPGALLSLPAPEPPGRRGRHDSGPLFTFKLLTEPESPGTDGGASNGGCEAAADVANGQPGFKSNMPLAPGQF
As to the kind of experiment: Radioligand binding, adrenergic α1B (Protocol Group B). The conditions noted are these: Protocol Group B; for inhibition at 0.1 µM / Percentage inhibition of ligand binding, Adrenergic α1B (0.1 μM): 0.1 μM compound; for inhibition at 0.1 µM: read-out: Percentage inhibition of ligand binding, Adrenergic α1B (0.1 μM); for inhibition at 0.3 µM / Percentage inhibition of ligand binding, Adrenergic α1B (0.3 μM): 0.3 μM compound; for inhibition at 0.3 µM: read-out: Percentage inhibition of ligand binding, Adrenergic α1B (0.3 μM). The procedure, abridged:
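Values are percent inhibition of specific [3H]prazosin (0.3 nM) binding or estimated Ki, from filtration counting. Human α1B recombinant membranes, Tris-HCl pH 7.4 buffer with MgCl2 and EDTA, 60 min at 25 °C, 1% DMSO vehicle; 10 μM prazosin defined nonspecific binding.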

One may read the inhibition as the relative decrease from the control value, in per cent. Regarding `Cc1ccc2c(c1)c1c(n2CC(OCC2CCC2)c2ccncc2)CCN(C)C1` (stereo not shown) [59b], in test [1], the inhibition at 0.01 µM worked out at 84%, the inhibition at 0.03 µM is 97% and the inhibition at 0.1 µM was found to be 99%. Besides, in test [2], the inhibition at 0.1 µM stood at 39% and the inhibition at 0.3 µM was 65%. In test [3], the inhibition at 0.1 µM was found to be 28% and the inhibition at 0.3 µM is 62%.

`Cc1cc(F)cc2c3c(n(CC(C)(O)c4cccnc4)c12)CCN1CCCC31` (stereo not shown) [75b]: in test [1], the inhibition at 0.01 µM was -10%, the inhibition at 0.03 µM was -4% and the inhibition at 0.1 µM was -1%. For the same compound, in test [2], the inhibition at 0.1 µM was -3% and the inhibition at 0.3 µM is 5%. In addition, in test [3], the inhibition at 0.1 µM is -1% and the inhibition at 0.3 µM came out at 1%.

`CC(O)(Cn1c2c(c3cc(C(F)(F)F)ccc31)CN1CCCC1C2)c1cccnc1` (stereo not shown) [85b]: in test [1], the inhibition at 0.01 µM was -7% and the inhibition at 0.03 µM is -5%. Besides, in test [2], the inhibition at 0.1 µM was -14% and the inhibition at 0.3 µM was -17%. Also, in test [3], the inhibition at 0.1 µM was -12% and the inhibition at 0.3 µM was -3%.

As to `Cc1cc(C)c2c(c1)c1c(n2CC(O)C2CCCCC2)CCN2CCCC12` (stereo not shown) [141a], in test [1], the inhibition at 0.03 µM came to 93%. The inhibition at 0.1 µM in test [2] was determined as 85%; in test [3], 55%.

With `Cc1cc(C)c2c(c1)c1c(n2CC(O)C2CCCCC2)CCN2CCCC12` (stereo not shown) [141b], the “Percentage inhibition of ligand binding, Adrenergic α2B (30 nM)” value (“Percentage inhibition … (30 nM)” below) in test [1] was determined as 92%. Moreover, the “Percentage inhibition of ligand binding, Adrenergic α2A (0.1 μM)” value in test [2] is given as 81%. The “Percentage inhibition of ligand binding, Adrenergic α1B (0.1 μM)” value in test [3] is 57%.

As for `CN1CCc2c(c3c(Cl)ccc(Cl)c3n2CC(O)c2cccnc2)C1` (stereo not shown) [Compound No. 17, 2-(6,9-dichloro-2-methyl-3,4-dihydro-1H-pyrido[4,3-b]indol-5 (2H)-yl)-1-(pyridin-3-yl)ethanol], in test [1], the inhibition at 0.01 µM was 4%, the inhibition at 0.03 µM is -12% and the inhibition at 0.1 µM was -13%. In test [2], the inhibition at 0.1 µM was found to be 10% and the inhibition at 0.3 µM came out at 15%. In test [3], the inhibition at 0.1 µM worked out at 10% and the inhibition at 0.3 µM is 11%.

Regarding `Cc1ccc2c(c1)c1c(n2CC(O)c2ccncc2F)CCN2CCCC12` (stereo not shown) [compound 14, 1-(3-fluoropyridin-4-yl)-2-(10-methyl-2,3,5,6-tetrahydro-1H-indolizino[7,8-b]indol-7 (11cH)-yl)ethanol], in test [1], the inhibition at 0.01 µM is 81%, the inhibition at 0.03 µM amounted to 99% and the inhibition at 0.1 µM worked out at 101%. Further, in test [2], the inhibition at 0.1 µM came to 71% and the inhibition at 0.3 µM is 87%. In addition, in test [3], the inhibition at 0.1 µM turned out to be 74% and the inhibition at 0.3 µM was determined as 90%.

Turning to `OC(Cn1c2c(c3cc(F)ccc31)C1CCCN1CC2)c1ccncc1` (stereo not shown) [compound 18, 2-(10-fluoro-2,3,5,6-tetrahydro-1H-indolizino[7,8-b]indol-7 (11cH)-yl)-1-(pyridin-4-yl)ethanol], in test [1], the “Percentage inhibition of ligand binding, Adrenergic α2B (10 nM)” value is reported as 54%; the “Percentage inhibition … (30 nM)” value stood at 81%; the “Percentage inhibition of ligand binding, Adrenergic α2B (0.1 μM)” value turned out to be 95%. In test [2], the “Percentage inhibition of ligand binding, Adrenergic α2A (0.1 μM)” value came to 12% and the “Percentage inhibition of ligand binding, Adrenergic α2A (0.3 μM)” value is listed as 38%. In addition, in test [3], the “Percentage inhibition of ligand binding, Adrenergic α1B (0.1 μM)” value is 20% and the “Percentage inhibition of ligand binding, Adrenergic α1B (0.3 μM)” value turned out to be 51%.

Regarding `Cc1cc(C)c2c(c1)c1c(n2CC(C)(O)c2ccncc2)CCN2CCCC12` (stereo not shown) [compound 19, 1-(8,10-dimethyl-2,3,5,6-tetrahydro-1H-indolizino[7,8-b]indol-7(11cH)-yl)-2-(pyridin-4-yl)propan-2-ol], in test [1], the “Percentage inhibition of ligand binding, Adrenergic α2B (10 nM)” value is given as 81%; the “Percentage inhibition … (30 nM)” value was 95%; the “Percentage inhibition of ligand binding, Adrenergic α2B (0.1 μM)” value was 100%. Moreover, in test [2], the “Percentage inhibition of ligand binding, Adrenergic α2A (0.1 μM)” value was 59% and the “Percentage inhibition of ligand binding, Adrenergic α2A (0.3 μM)” value is 79%. Also, in test [3], the “Percentage inhibition of ligand binding, Adrenergic α1B (0.1 μM)” value came to 77% and the “Percentage inhibition of ligand binding, Adrenergic α1B (0.3 μM)” value is given as 91%.

Take `CN1CCc2c(c3cccc(Cl)c3n2CC(O)c2cccnc2)C1` (stereo not shown) [compound 20, 2-(6-chloro-2-methyl-3,4-dihydro-1H-pyrido[4,3-b]indol-5-(2H)-yl)-1-(pyridin-3-yl)ethanol]: in test [1], the inhibition at 0.01 µM came to 6%, the inhibition at 0.03 µM came out at 35% and the inhibition at 0.1 µM amounted to 54%. In test [2], the inhibition at 0.1 µM turned out to be 12% and the inhibition at 0.3 µM was 23%. Further, in test [3], the inhibition at 0.1 µM was found to be 10% and the inhibition at 0.3 µM amounted to 15%.

For `Cc1cc2c3c(n(CC(O)c4ccncc4)c2cc1Cl)CCN1CCCC31` (stereo not shown) [compound 21, 2-(8-chloro-9-methyl-1,2,3,4,5,10c-hexahydro-3a, 6-diaza-cyclopenta[c]fluoren-6-yl)-1-pyridin-4-yl-ethanol], in test [1], the inhibition at 0.01 µM was 85%, the inhibition at 0.03 µM is 96% and the inhibition at 0.1 µM turned out to be 96%. Also, in test [2], the inhibition at 0.1 µM amounted to 78% and the inhibition at 0.3 µM turned out to be 89%. For the same compound, in test [3], the inhibition at 0.1 µM was determined as 84% and the inhibition at 0.3 µM was 95%.

As to `Cc1ccc2c(c1)c1c(n2CC(O)c2cc[n+]([O-])cc2)CCN2CCCC12` (stereo not shown) [compound 22, 4-(1-hydroxy-2-(10-methyl-2,3,5,6-tetrahydro-1H-indolizino[7,8-b]indol-7 (11cH)-yl)ethyl)pyridine 1-oxide], in test [1], the inhibition at 0.01 µM worked out at 30%, the inhibition at 0.03 µM was determined as 61% and the inhibition at 0.1 µM turned out to be 72%. In test [2], the inhibition at 0.1 µM turned out to be 7% and the inhibition at 0.3 µM is 15%. In addition, in test [3], the inhibition at 0.1 µM was 11% and the inhibition at 0.3 µM is 30%.

Turning to `Cc1ccc2c(c1)c1c(n2CC(O)c2cccnc2)C(O)CN(C)C1` (stereo not shown) [compound 24, 5-(2-Hydroxy-2-pyridin-3-yl-ethyl)-2,8-dimethyl-2,3,4,5-tetrahydro-1H-pyrido[4,3-b]indol-4-ol], in test [1], the inhibition at 0.01 µM is -25%, the inhibition at 0.03 µM is 0% and the inhibition at 0.1 µM was found to be 29%. Also, in test [2], the inhibition at 0.1 µM is -15% and the inhibition at 0.3 µM was 4%. In test [3], the inhibition at 0.1 µM is -3% and the inhibition at 0.3 µM worked out at 15%.

(Values after patent US20150315188A1, “COMPOUNDS AND METHODS FOR TREATMENT OF HYPERTENSION” (MEDIVATION TECHNOLOGIES, INC., priority 2012, published 2015).)
